From patent publication US20120245137A1 (Zalicus Pharmaceuticals Ltd., priority 2009, published 2012) come the findings set out here.

Common to all, as to assay type: cell-based
Assay [1] concerns the target human α1G T-type channels (Homo sapiens, UniProt O43497). Briefly: T-type calcium channel block, whole cell patch clamp, α1G. To be noted: HEK cells stably expressing human α1G; mainly non-inactivated protocol; values above 10,000 nM represented as 10000. In a few lines:
(§1)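 Whole-cell voltage clamp on stably transfected HEK 293 lines carrying human α1H or α1G. Two voltage protocols used: non-inactivated pre-pulse for resting block, inactivated for voltage-dependent block; test agents perfused locally in external solution (0.1-0.01% DMSO) following ~10 min rest.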
In general terms: In patch-clamp work, channel activity is measured electrically.

Assay [2] addresses human α1H T-type channels (Homo sapiens, UniProt O95180). Nature of the assay: T-type calcium channel block, whole cell patch clamp, α1H. The conditions noted are these: HEK cells stably expressing human α1H; mainly non-inactivated protocol; values above 10,000 nM represented as 10000. Summed up:
as §1

Assay [3] deals with N-type calcium channel subunits (α1B, α2δ, and β3a) (Homo sapiens, UniProt Q00975). Nature of the assay: Block of Cav2.2 channel, whole cell voltage clamp, manual and PatchXpress. To be noted: Table 5; table follows Assay Example 3 (whole cell voltage clamp / PatchXpress); assay not given. In a few lines:
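Percent block taken as current amplitude ratio with versus without compound, applied in rising doses; IC50 fitted where one cell received multiple doses. Protocol: 50 ms pulses to +20 mV at 0.067 Hz from […] or −90 mV holding; P/n leak subtraction, no junction-potential correction; manual and PatchXpress recordings.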

A word on the pIC50: it is the negative decadic logarithm of the IC50, by convention in mol/L. Broadly, the IC50 is the concentration needed to halve the response being measured.

pIC50: −log10 of the molar value. Where only a bound is given, the exact number is not on record here.

human α1G T-type channels, sequence (O43497 whole entry, the tested form may be a part): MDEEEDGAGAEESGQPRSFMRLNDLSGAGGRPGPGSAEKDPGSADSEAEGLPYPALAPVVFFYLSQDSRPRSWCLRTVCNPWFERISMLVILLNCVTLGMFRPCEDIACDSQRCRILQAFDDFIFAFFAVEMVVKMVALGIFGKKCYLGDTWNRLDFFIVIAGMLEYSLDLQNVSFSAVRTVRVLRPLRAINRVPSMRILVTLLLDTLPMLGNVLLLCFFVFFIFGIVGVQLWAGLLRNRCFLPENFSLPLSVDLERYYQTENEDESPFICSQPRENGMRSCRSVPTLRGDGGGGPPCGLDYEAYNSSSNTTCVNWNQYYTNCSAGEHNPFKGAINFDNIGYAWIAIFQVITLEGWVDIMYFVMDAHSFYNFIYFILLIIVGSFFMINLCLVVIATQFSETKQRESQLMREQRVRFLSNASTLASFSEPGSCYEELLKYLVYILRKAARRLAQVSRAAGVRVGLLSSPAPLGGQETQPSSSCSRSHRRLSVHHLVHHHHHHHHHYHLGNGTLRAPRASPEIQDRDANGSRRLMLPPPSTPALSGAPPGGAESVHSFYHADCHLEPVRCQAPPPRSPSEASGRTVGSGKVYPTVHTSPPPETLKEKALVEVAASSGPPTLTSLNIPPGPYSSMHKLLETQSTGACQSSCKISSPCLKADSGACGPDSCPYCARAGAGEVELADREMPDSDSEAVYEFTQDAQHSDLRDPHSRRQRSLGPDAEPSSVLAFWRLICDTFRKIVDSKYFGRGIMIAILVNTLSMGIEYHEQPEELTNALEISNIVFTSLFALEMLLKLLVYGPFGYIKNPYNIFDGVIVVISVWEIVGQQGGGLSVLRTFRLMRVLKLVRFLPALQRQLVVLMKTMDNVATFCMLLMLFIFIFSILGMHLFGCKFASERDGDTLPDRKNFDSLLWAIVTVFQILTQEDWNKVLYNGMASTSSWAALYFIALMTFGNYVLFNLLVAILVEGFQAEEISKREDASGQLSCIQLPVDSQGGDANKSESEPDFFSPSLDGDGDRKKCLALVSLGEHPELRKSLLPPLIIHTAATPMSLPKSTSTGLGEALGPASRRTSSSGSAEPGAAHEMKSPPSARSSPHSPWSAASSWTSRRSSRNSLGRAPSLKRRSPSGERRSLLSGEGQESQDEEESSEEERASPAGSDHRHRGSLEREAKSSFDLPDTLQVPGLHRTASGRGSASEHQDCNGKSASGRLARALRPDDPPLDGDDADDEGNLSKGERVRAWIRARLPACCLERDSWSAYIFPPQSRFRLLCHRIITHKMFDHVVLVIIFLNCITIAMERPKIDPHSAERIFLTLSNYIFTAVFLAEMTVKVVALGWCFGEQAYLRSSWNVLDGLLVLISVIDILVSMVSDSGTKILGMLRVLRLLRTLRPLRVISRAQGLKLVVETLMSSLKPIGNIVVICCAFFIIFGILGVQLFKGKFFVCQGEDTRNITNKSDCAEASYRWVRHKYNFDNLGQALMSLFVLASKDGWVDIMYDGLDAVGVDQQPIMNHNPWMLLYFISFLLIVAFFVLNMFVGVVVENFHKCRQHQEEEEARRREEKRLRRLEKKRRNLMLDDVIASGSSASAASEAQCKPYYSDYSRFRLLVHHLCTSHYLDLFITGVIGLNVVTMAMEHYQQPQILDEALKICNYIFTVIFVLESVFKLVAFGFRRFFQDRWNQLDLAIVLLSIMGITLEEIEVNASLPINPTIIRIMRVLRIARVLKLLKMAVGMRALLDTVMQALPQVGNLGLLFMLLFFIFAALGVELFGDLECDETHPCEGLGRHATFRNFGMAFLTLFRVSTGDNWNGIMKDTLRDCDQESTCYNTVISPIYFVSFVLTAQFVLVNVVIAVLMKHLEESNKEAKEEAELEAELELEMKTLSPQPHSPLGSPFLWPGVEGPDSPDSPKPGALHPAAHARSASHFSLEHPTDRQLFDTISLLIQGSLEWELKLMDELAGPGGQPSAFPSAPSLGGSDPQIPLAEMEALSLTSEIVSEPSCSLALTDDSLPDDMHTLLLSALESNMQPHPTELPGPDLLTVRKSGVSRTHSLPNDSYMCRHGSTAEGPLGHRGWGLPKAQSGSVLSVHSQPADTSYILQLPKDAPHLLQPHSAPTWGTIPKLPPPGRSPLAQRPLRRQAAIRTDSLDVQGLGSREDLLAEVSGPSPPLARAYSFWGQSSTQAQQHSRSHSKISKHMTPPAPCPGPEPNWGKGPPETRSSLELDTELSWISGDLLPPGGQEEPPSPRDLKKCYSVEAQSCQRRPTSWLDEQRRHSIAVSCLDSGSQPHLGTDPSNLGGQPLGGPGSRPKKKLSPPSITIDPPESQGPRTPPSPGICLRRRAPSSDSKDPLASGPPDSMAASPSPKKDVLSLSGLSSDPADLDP
human α1H T-type channels, sequence (O95180 whole entry): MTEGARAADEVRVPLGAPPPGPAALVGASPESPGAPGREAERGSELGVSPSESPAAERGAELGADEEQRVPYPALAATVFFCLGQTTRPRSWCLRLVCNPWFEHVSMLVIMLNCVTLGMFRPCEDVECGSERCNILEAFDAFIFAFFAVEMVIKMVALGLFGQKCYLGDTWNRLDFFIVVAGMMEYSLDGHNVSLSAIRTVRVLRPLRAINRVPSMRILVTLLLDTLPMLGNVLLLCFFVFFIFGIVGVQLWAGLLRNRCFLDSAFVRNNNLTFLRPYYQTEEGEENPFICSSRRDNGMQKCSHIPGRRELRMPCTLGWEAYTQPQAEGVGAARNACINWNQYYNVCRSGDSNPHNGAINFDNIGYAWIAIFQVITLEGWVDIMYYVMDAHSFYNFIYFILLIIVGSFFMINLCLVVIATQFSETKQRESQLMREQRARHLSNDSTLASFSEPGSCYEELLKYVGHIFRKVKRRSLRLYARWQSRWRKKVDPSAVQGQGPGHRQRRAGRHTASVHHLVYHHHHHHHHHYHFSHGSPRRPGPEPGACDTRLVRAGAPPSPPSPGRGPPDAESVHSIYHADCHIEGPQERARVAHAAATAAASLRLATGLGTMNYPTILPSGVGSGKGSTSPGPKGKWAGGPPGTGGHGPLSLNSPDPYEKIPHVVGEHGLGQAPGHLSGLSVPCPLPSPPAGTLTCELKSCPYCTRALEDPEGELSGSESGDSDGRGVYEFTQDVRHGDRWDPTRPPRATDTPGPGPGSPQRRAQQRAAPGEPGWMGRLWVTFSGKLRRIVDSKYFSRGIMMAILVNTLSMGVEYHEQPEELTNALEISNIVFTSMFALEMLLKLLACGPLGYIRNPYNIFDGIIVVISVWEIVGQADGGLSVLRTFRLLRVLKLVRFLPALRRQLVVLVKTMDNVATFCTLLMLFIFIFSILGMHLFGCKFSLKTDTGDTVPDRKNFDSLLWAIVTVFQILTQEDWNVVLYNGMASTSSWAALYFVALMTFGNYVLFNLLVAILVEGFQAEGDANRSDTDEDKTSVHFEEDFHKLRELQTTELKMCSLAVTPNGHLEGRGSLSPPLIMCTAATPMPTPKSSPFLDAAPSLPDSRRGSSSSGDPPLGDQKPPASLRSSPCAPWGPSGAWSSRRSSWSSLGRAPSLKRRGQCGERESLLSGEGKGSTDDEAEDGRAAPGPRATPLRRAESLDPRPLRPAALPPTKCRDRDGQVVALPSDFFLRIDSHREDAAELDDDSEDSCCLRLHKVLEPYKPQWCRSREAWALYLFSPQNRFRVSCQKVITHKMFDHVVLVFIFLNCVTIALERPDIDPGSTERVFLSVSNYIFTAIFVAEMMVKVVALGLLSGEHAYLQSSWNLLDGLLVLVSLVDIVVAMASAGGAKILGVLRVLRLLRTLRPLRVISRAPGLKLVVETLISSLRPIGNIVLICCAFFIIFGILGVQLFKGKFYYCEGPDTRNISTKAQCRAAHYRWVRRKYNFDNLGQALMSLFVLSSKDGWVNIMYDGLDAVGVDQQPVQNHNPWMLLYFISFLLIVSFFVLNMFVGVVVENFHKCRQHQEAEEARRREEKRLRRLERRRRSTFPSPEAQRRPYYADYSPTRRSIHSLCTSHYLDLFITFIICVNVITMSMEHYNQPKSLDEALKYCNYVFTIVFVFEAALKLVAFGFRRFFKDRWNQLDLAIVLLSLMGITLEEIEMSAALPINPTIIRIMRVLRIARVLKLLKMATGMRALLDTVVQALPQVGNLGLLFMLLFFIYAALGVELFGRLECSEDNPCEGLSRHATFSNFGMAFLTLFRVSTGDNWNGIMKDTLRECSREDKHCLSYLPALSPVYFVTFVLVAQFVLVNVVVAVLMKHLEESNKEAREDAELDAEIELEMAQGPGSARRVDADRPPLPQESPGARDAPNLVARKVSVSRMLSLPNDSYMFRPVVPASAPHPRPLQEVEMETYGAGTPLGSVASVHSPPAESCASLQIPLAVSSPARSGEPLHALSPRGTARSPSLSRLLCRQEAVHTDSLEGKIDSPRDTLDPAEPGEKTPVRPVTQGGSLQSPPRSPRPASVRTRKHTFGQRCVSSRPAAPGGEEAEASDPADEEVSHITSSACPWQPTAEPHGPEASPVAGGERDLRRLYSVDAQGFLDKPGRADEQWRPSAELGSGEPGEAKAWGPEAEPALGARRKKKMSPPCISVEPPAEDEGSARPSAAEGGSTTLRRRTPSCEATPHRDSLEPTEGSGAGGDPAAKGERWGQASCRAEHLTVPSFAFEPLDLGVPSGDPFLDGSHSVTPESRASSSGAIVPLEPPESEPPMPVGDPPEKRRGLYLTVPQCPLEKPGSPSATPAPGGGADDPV

For `O=C(NC[C@H]1C[C@@H](S(=O)(=O)c2cccc(C(F)(F)F)c2)C1)c1ccc(C(F)(F)F)cn1` [Compound 385, 5-(trifluoromethyl)-N-(((1S,3S)-3-(3-(trifluoromethyl)phenylsulfonyl)cyclobutyl)methyl)picolinamide], the pIC50 in assay [1] and in assay [2] was below 5.00 throughout. In addition, the IC50 in assay [3] is 710 nM.

For the compound `CC(C)(C)NC(=O)CN[C@H]1CC[C@](F)(S(=O)(=O)c2cccc(C(F)(F)F)c2)CC1` [Compound 28, N-tert-butyl-2-((1R,4R)-4-fluoro-4-(3-(trifluoromethyl)phenylsulfonyl)cyclohexylamino)acetamide], the negative-log IC50 (pIC50) in assay [1] was 5.91; in assay [2], 5.90. The IC50 in assay [3] worked out at 940 nM.

Turning to `Cn1nc(C(F)(F)F)cc1NC(=O)[C@H]1C[C@@H](S(=O)(=O)c2cccc(C(F)(F)F)c2)C1` [Compound 408, (1S,3S)-N-(1-methyl-3-(trifluoromethyl)-1H-pyrazol-5-yl)-3-(3-(trifluoromethyl)phenylsulfonyl)cyclobutane carboxamide], the results for the pIC50 in assay [1] and in assay [2] were 5.10 and 6.38, respectively. The IC50 in assay [3] was 2490 nM.

As to `CCN(CC)C(=O)CN[C@H]1CC[C@H](CS(=O)(=O)c2cccc(C(F)(F)F)c2)CC1` [Compound 116, N,N-diethyl-2-((1R,4R)-4-((3-(trifluoromethyl)phenylsulfonyl)methyl)cyclohexylamino)acetamide], the results for the pIC50 in assay [1] and in assay [2] were 5.08 and 5.37, respectively. Besides, the IC50 in assay [3] is 2090 nM.

For `CS(=O)(=O)c1cc(C(=O)N[C@H]2CC[C@@](F)(S(=O)(=O)c3cccc(C(F)(F)F)c3)CC2)cc(C(F)(F)F)n1` [Compound 273, N-((1R,4R)-4-fluoro-4-(3-(trifluoromethyl)phenylsulfonyl)cyclohexyl)-2-(methylsulfonyl)-6-(trifluoromethyl)isonicotinamide], the pIC50 in assay [1] and in assay [2] was below 5.00 in each case. Besides, the IC50 in assay [3] is 430 nM.

As for `O=C(N[C@H]1CC[C@@H](S(=O)(=O)c2cc(F)cc(C(F)(F)F)c2)CC1)c1ccc(Cl)c(OC(F)(F)F)c1` [Compound 322, 4-chloro-N-((1S,4S)-4-(3-fluoro-5-(trifluoromethyl)phenylsulfonyl)cyclohexyl)-3-(trifluoromethoxy)benzamide], the pIC50 is 5.49 in assay [1] and 6.20 in assay [2]. For the same compound, the half-inhibitory concentration (IC50) in assay [3] amounted to 500 nM.

With `O=C(N[C@H]1CC[C@@](F)(S(=O)(=O)c2cccc(C(F)(F)F)c2)CC1)c1cc(F)cc(Cl)c1` [Compound 86, 3-chloro-5-fluoro-N-((1S,4S)-4-fluoro-4-(3-(trifluoromethyl)phenylsulfonyl)cyclohexyl)benzamide], the results for the pIC50 in assay [1] and in assay [2] were below 5.00 and 5.71, respectively. In assay [3], the IC50 turned out to be 190 nM.

Regarding `CC1(S(=O)(=O)c2cccc(C(F)(F)F)c2)CCC(NC(=O)c2ccc(C(F)(F)F)nc2)CC1` (stereo not drawn) [Compound 1, N-(4-methyl-4-(3-(trifluoromethyl)phenylsulfonyl)cyclohexyl)-6-(trifluoromethyl) nicotinamide], the pIC50 in assay [1] is below 5.00; in assay [2], 5.13. Further, the IC50 in assay [3] amounted to 1030 nM.

As for “2-(4,4-difluoropiperidin-1-yl)-N- ((1R,4R)-4-((3- (trifluoromethyl)phenylsulfonyl) methyl)cyclohexyl)acetamide [Compound 166]”, the negative logarithm of the IC50 (pIC50) is below 5.00 in assay [1] and 5.07 in assay [2]. Further, in assay [3], the IC50 was 750 nM.

Consider “4-chloro-3-fluoro-N-((1R,4R)-4-(3- (trifluoromethyl)phenylsulfonyl) cyclohexyl)benzamide [Compound 123]”, for which the results for the pIC50 in assay [1] and in assay [2] were 7.52 and 6.36, respectively. In assay [3], the IC50 worked out at 660 nM.

Consider `O=C(N[C@H]1CC[C@@](F)(S(=O)(=O)c2cccc(OC(F)(F)F)c2)CC1)c1cncc(C(F)(F)F)c1` [Compound 252, N-((1S,4S)-4-fluoro-4-(3-(trifluoromethoxy)phenylsulfonyl)cyclohexyl)-5-(trifluoromethyl)nicotinamide], for which the pIC50 in assay [1] is 6.35; in assay [2], 6.17. For the same compound, the IC50 in assay [3] came out at 350 nM.

Turning to “4-fluoro-3-(trifluoromethyl)-N- ((1S,4S)-4-((3- (trifluoromethyl)phenylsulfonyl) methyl)cyclohexyl)benzamide [Compound 138]”, the pIC50 was 5.01 in assay [1] and 5.55 in assay [2]. In addition, the concentration for half-maximal inhibition (IC50) in assay [3] amounted to 420 nM.

Consider `Cn1nc(C(F)(F)F)cc1C(=O)N[C@H]1CC[C@@](F)(S(=O)(=O)c2cc(F)cc(C(F)(F)F)c2)CC1` [Compound 327, N-((1S,4S)-4-fluoro-4-(3-fluoro-5-(trifluoromethyl)phenylsulfonyl)cyclohexyl)-1-methyl-3-(trifluoromethyl)-1Hpyrazole-5-carboxamide], for which the negative-log IC50 (pIC50) is 5.55 in assay [1] and 6.12 in assay [2]. In addition, the IC50 in assay [3] was determined as 630 nM.

For the compound `O=C(Nc1ccc(Oc2ccc(C(F)(F)F)nc2)nc1)[C@H]1C[C@H](S(=O)(=O)c2cccc(C(F)(F)F)c2)C1` [Compound 401, (1R,3R)-3-(3-(trifluoromethyl)phenylsulfonyl)-N-(6-(6-(trifluoromethyl)pyridin-3-yloxy)pyridin-3-yl) cyclobutanecarboxamide], the results for the pIC50 in assay [1] and in assay [2] were below 5.00 and 5.03, respectively. Moreover, the IC50 in assay [3] was determined as 1430 nM.

For the compound `O=C(N[C@H]1CC[C@H](S(=O)(=O)c2cccc(C(F)(F)F)c2)CC1)c1ccc(C(F)(F)F)cn1` [Compound 62, 5-(trifluoromethyl)-N-((1R,4R)-4-(3-(trifluoromethyl)phenylsulfonyl)cyclohexyl)picolinamide], the pIC50 in assay [1] was 5.97; in assay [2], 6.26. In addition, in assay [3], the half-inhibitory concentration (IC50) turned out to be 3480 nM.

Consider `O=C(NC[C@H]1C[C@H](S(=O)(=O)c2cccc(C(F)(F)F)c2)C1)c1cc(C(F)(F)F)ccn1` [Compound 372, 4-(trifluoromethyl)-N-(((1R,3R)-3-(3-(trifluoromethyl)phenylsulfonyl)cyclobutyl)methyl)picolinamide], for which the figures for the pIC50 in assay [1] and in assay [2] were 5.14 and 5.02, respectively. In assay [3], the IC50 was 260 nM.

As to `CC1(S(=O)(=O)c2cccc(C(F)(F)F)c2)CCC(NC(=O)c2cc(C(F)(F)F)ccn2)CC1` (stereo not drawn) [Compound 21, N-(4-methyl-4-(3-(trifluoromethyl)phenylsulfonyl)cyclohexyl)-4-(trifluoromethyl)picolinamide], the pIC50 in assay [1] was 5.18; in assay [2] it was 5.40. Moreover, the IC50 in assay [3] was 200 nM.

In the case of `O=C(N[C@H]1CC[C@@H](S(=O)(=O)c2cccc(C(F)(F)F)c2)CC1)c1ccc(Cl)c(F)c1` [Compound 130, 4-chloro-3-fluoro-N-((1S,4S)-4-(3-(trifluoromethyl)phenylsulfonyl)cyclohexyl)benzamide], the pIC50 in assay [1] is 6.37; in assay [2], 6.03. Also, the IC50 in assay [3] was 290 nM.

`O=C(N[C@H]1CC[C@@H](S(=O)(=O)c2cc(F)cc(C(F)(F)F)c2)CC1)c1ccc(F)c(Cl)c1` [Compound 320, 3-chloro-4-fluoro-N-((1S,4S)-4-(3-fluoro-5-(trifluoromethyl)phenylsulfonyl)cyclohexyl) benzamide]: the pIC50 is 6.54 in assay [1] and 6.72 in assay [2]. The IC50 in assay [3] worked out at 600 nM.

With `COc1cc(Cl)ccc1C(=O)N[C@H]1CC[C@@](F)(S(=O)(=O)c2cccc(C(F)(F)F)c2)CC1` [Compound 265, 4-chloro-N-((1S,4S)-4-fluoro-4-(3-(trifluoromethyl)phenylsulfonyl)cyclohexyl)-2-methoxybenzamide], the pIC50 in assay [1] and in assay [2] was below 5.00 in each case. The 50% inhibitory concentration (IC50) in assay [3] was 260 nM.

Take `O=C(N[C@H]1CC[C@@H](CS(=O)(=O)c2cccc(C(F)(F)F)c2)CC1)c1ccc(Cl)c(OC(F)(F)F)c1` [Compound 139, 4-chloro-3-(trifluoromethoxy)-N-((1S,4S)-4-((3-(trifluoromethyl)phenylsulfonyl)methyl)cyclohexyl)benzamide]: the pIC50 was 5.73 in assay [1] and 5.99 in assay [2]. For the same compound, the concentration for half-maximal inhibition (IC50) in assay [3] turned out to be 390 nM.

Consider `O=C(NC[C@H]1C[C@H](S(=O)(=O)c2cccc(C(F)(F)F)c2)C1)c1cnc(C(F)(F)F)nc1` [Compound 371, 2-(trifluoromethyl)-N-(((1R,3R)-3-(3-(trifluoromethyl)phenylsulfonyl)cyclobutyl)methyl)pyrimidine-5-carboxamide], for which the pIC50 in assay [1] was 5.97; in assay [2], 6.18. Further, the IC50 in assay [3] is 1160 nM.

For `O=C(Nc1ccc(Oc2ccc(F)c(Cl)c2)nc1)[C@H]1C[C@H](S(=O)(=O)c2cccc(C(F)(F)F)c2)C1` [Compound 399, (1R,3R)-N-(6-(3-chloro-4-fluorophenoxy)pyridin-3-yl)-3-(3-(trifluoromethyl)phenylsulfonyl)cyclobutane carboxamide], the pIC50 in assay [1] was 5.90; in assay [2] it was 5.97. Moreover, the 50% inhibitory concentration (IC50) in assay [3] amounted to 1140 nM.

Regarding `CC(C)(C(=O)N[C@H]1CC[C@@](F)(S(=O)(=O)c2cccc(C(F)(F)F)c2)CC1)S(=O)(=O)c1cccc(C(F)(F)F)c1` [Compound 291, N-((1S,4S)-4-fluoro-4-(3-(trifluoromethyl)phenylsulfonyl)cyclohexyl)-2-methyl-2-(3-(trifluoromethyl)phenylsulfonyl)propanamide], the pIC50 in assay [1] is below 5.00; in assay [2], 5.22. Also, the half-maximal inhibitory concentration (IC50) in assay [3] was 50 nM.
